Experiment [1] concerns the target T1, BACE2 (Homo sapiens, UniProt Q9Y5Z0).
T1 construct: BACE2 enzyme ectodomain (derived from plasmid “pET17b-T7-hu proBACE2”); T7 (N); made in house
T1 sequence (Q9Y5Z0 63-473 limits assumed): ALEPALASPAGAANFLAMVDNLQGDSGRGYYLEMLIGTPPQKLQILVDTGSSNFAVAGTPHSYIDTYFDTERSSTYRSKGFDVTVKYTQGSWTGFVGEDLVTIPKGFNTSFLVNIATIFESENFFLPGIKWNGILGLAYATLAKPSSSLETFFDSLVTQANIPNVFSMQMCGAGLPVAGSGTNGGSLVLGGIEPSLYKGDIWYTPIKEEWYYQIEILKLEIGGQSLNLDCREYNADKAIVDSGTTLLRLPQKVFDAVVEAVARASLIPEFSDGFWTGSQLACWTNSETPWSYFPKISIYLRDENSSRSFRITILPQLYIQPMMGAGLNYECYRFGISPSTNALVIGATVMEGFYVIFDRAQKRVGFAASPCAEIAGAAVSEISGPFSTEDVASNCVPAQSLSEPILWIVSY
The experiment can be described thus: Assay A: binding studies using SPR based methods, immobilised BACE2. Conditions: CM5 chip, immobilised BACE2 enzyme ectodomain, acetate buffer pH 4.6, 4% DMSO.

Experiment [2] addresses T2, BACE2 (Rattus norvegicus, UniProt Q6IE75).
T2 construct: endogenous cellular BACE2 in the Ins1e rat cell line; endogenous in cells; host or cells: INS-TMEM27 (INS1e-derived rat cell line with doxycycline-inducible full-length hTMEM27)
T2 sequence (Q6IE75 63-514): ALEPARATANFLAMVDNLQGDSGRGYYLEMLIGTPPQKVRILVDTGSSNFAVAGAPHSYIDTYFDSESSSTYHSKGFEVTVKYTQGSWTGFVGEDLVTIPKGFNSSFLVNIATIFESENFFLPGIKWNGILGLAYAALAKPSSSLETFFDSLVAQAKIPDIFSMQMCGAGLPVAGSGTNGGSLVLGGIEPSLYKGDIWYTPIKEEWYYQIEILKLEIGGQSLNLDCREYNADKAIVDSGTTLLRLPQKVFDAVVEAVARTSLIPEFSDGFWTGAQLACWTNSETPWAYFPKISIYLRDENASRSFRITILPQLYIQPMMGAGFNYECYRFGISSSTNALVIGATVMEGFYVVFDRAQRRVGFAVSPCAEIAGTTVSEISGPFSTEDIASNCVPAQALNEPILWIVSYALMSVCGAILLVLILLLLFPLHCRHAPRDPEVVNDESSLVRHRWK
Description: Assay for BACE inhibition by measuring cellular TMEM27 cleavage.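 Note: inhibitor added 2 h before doxycycline-induced hTMEM27 expression, supernatant collected after further 46 h, endogenous BACE2 activity read as reduced TMEM27 shedding.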 The class given is cell-based. Conditions: INS-TMEM27 (INS1e-derived) cells, ELISA of shed human TMEM27 in supernatant. (An ELISA detects its analyte on a solid surface through an enzyme-linked reagent.)

Experiment [3] deals with T3, BACE1 (Homo sapiens, UniProt P56817). The experiment can be described thus: Cellular Abeta-lowering assay. The class given is cell-based. On the set-up: endogenous in cells; host or cells: HEK293 stably transfected with human APP695 wt. The conditions noted are these: HEK293 cells stably transfected with human APP wt (APP695), Aβ40 ELISA of supernatant after 18-20 hrs.

Experiment [4] addresses T3, BACE1. The experiment can be described thus: Assay A: binding studies using SPR based methods, immobilised BACE1.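 Note: KD from a 1:1 kinetic fit (koff/kon) of real-time association and dissociation curves, or for fast binders from end-of-association equilibrium responses plotted against log concentration.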 Also noted: 6his-tagged full length BACE 1 expressed in SF9 cells; 6His; made in house; host or cells: SF9 insect cells. Conditions: CM5 chip, immobilised 6his-tagged full length BACE 1, acetate buffer pH 4.6, 4% DMSO.

The structures appear in SMILES notation. Counter-ions that a name gives are not always drawn.

T3 sequence (P56817 46-501): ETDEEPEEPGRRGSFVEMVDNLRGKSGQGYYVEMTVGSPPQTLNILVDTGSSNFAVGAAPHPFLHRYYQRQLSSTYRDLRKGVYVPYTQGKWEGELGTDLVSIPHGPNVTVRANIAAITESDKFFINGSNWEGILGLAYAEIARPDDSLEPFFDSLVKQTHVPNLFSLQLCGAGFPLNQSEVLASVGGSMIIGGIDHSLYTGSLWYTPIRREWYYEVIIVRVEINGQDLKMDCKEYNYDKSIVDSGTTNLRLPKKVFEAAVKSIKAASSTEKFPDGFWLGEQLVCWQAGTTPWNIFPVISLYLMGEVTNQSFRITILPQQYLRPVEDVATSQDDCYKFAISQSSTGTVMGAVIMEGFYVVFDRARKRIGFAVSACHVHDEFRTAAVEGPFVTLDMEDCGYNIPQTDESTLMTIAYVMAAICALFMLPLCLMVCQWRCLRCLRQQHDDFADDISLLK

In the case of `C[C@@]1(c2cc(NC(=O)c3ccc(OC(F)F)cn3)ccc2F)COCC(N)=N1` [Example 73, 5-difluoromethoxy-pyridine-2-carboxylic acid [3-((R)-5-amino-3-methyl-3,6-dihydro-2H-[1,4]oxazin-3-yl)-4-fluoro-phenyl]-amide hydrochloride], the Kd in experiment [1] was 51 nM; in experiment [4], 9 nM. For the same compound, the half-inhibitory concentration (IC50) in experiment [2] is 105 nM; in experiment [3], 4 nM.

For `C[C@@]1(c2cc(NC(=O)c3ncc(Cl)cc3F)ccc2F)COCC(N)=N1` [Example 74, 5-Chloro-3-fluoro-pyridine-2-carboxylic acid [3-((R)-5-amino-3-methyl-3,6-dihydro-2H-[1,4]oxazin-3-yl)-4-fluoro-phenyl]-amide hydrochloride], the dissociation constant (Kd) stood at 2 nM in experiment [1] and 10 nM in experiment [4]. Moreover, the concentration for half-maximal inhibition (IC50) in experiment [2] was determined as 1350 nM; in experiment [3], 4 nM.

For the compound `C[C@@]1(c2cc(NC(=O)c3ncco3)ccc2F)COCC(N)=N1` [Example 80, oxazole-2-carboxylic acid [3-((R)-5-amino-3-methyl-3,6-dihydro-2H-[1,4]oxazin-3-yl)-4-fluoro-phenyl]-amide], the Kd is 45 nM in experiment [1] and 2270 nM in experiment [4]. The half-maximal inhibitory concentration (IC50) in experiment [2] came to 84 nM; in experiment [3] it was 700 nM.

Turning to `C[C@@]1(c2cc(NC(=O)c3cnc(C(F)(F)F)cn3)ccc2F)COCC(N)=N1` [Example 81, 5-trifluoromethyl-pyrazine-2-carboxylic acid [3-((R)-5-amino-3-methyl-3,6-dihydro-2H-[1,4]oxazin-3-yl)-4-fluoro-phenyl]-amide formate], the dissociation constant (Kd) was 256 nM in experiment [1] and 102 nM in experiment [4]. The half-maximal inhibitory concentration (IC50) in experiment [2] is 210 nM; in experiment [3] it was 47 nM.

Regarding `C[C@@]1(c2cc(NC(=O)c3cnc(C(F)(F)F)cn3)ccc2F)COCC(N)=N1` [Example 82, 5-trifluoromethyl-pyrazine-2-carboxylic acid [3-((R)-5-amino-3-methyl-3,6-dihydro-2H-[1,4]oxazin-3-yl)-4-fluoro-phenyl]-amide formate], the values for the Kd in experiment [1] and in experiment [4] were 113 nM and 129 nM, respectively. The results for the half-maximal inhibitory concentration (IC50) in experiment [2] and in experiment [3] were 140 nM and 46 nM, respectively.

Regarding `C[C@@]1(c2cc(NC(=O)C(F)(F)C(F)F)ccc2F)COCC(N)=N1` [Example 83, N-[3-((R)-5-amino-3-methyl-3,6-dihydro-2H-[1,4]oxazin-3-yl)-4-fluoro-phenyl]-2,2,3,3-tetrafluoro-propionamide formate], the Kd in experiment [1] came to 276 nM; in experiment [4], 916 nM. Further, the values for the IC50 in experiment [2] and in experiment [3] were 130 nM and 300 nM, respectively.

On to `COCC(=O)Nc1ccc(F)c([C@]2(C)COCC(N)=N2)c1` [Example 84, N-[3-((R)-5-amino-3-methyl-3,6-dihydro-2H-[1,4]oxazin-3-yl)-4-fluoro-phenyl]-2-methoxy-acetamide formate], for which the figures for the Kd in experiment [1] and in experiment [4] were 77 nM and 261 nM, respectively. Besides, the half-maximal inhibitory concentration (IC50) in experiment [2] worked out at 83 nM; in experiment [3], 140 nM.

On to `CC(C)C(=O)Nc1ccc(F)c([C@]2(C)COCC(N)=N2)c1` [Example 88, N-[3-((R)-5-amino-3-methyl-3,6-dihydro-2H-[1,4]oxazin-3-yl)-4-fluoro-phenyl]-isobutyramide formate], for which the Kd in experiment [1] was 3450 nM; in experiment [4], over 10000 nM. In addition, the IC50 in experiment [2] stood at 560 nM; in experiment [3], 2760 nM.

On to `CC(F)(F)C(=O)Nc1ccc(F)c([C@]2(C)COCC(N)=N2)c1` [Example 90, N-[3-((R)-5-amino-3-methyl-3,6-dihydro-2H-[1,4]oxazin-3-yl)-4-fluoro-phenyl]-2,2-difluoro-propionamide formate], for which the dissociation constant (Kd) came to 150 nM in experiment [1] and 148 nM in experiment [4]. The IC50 in experiment [2] turned out to be 1220 nM; in experiment [3], 220 nM.

For the compound `C[C@@]1(c2cc(NC(=O)C(F)F)ccc2F)COCC(N)=N1` [Example 91, N-[3-((R)-5-amino-3-methyl-3,6-dihydro-2H-[1,4]oxazin-3-yl)-4-fluoro-phenyl]-2,2-difluoro-acetamide formate], the Kd in experiment [1] was determined as 1140 nM; in experiment [4], 994 nM. The half-maximal inhibitory concentration (IC50) was 95 nM in experiment [2] and 1460 nM in experiment [3].

As to `CC(C)(F)C(=O)Nc1ccc(F)c([C@]2(C)COCC(N)=N2)c1` [Example 92, N-[3-((R)-5-amino-3-methyl-3,6-dihydro-2H-[1,4]oxazin-3-yl)-4-fluoro-phenyl]-2-fluoro-2-methyl-propionamide formate], the Kd in experiment [1] was found to be 1070 nM; in experiment [4], 2220 nM. Further, the figures for the 50% inhibitory concentration (IC50) in experiment [2] and in experiment [3] were 1090 nM and 400 nM, respectively.

With `CC(=O)Nc1ccc(F)c([C@]2(C)COCC(N)=N2)c1` [Example 93, N-[3-((R)-5-amino-3-methyl-3,6-dihydro-2H-[1,4]oxazin-3-yl)-4-fluoro-phenyl]-acetamide formate], the Kd in experiment [1] was 3850 nM; in experiment [4], over 10000 nM. The half-inhibitory concentration (IC50) worked out at 3390 nM in experiment [2] and 6820 nM in experiment [3].

Take `CCC(=O)Nc1ccc(F)c([C@]2(C)COCC(N)=N2)c1` [Example 94, N-[3-((R)-5-amino-3-methyl-3,6-dihydro-2H-[1,4]oxazin-3-yl)-4-fluoro-phenyl]-propionamide formate]: the equilibrium dissociation constant (Kd) in experiment [1] worked out at 1950 nM; in experiment [4], 2700 nM. Further, the IC50 is 1080 nM in experiment [2] and 1400 nM in experiment [3].

For `Cc1cc(Cl)cnc1C(=O)Nc1ccc(F)c([C@]2(C)COCC(N)=N2)c1` [Example 98, 5-chloro-3-methyl-pyridine-2-carboxylic acid [3-((R)-5-amino-3-methyl-3,6-dihydro-2H-[1,4]oxazin-3-yl)-4-fluoro-phenyl]-amide], the Kd in experiment [1] worked out at 4 nM; in experiment [4] it was 14 nM. Besides, the values for the IC50 in experiment [2] and in experiment [3] were 1 nM and 7 nM, respectively.

For `C[C@@]1(c2cc(NC(=O)c3ccc(F)cn3)ccc2F)COCC(N)=N1` [Example 99, 5-fluoro-pyridine-2-carboxylic acid [3-((R)-5-amino-3-methyl-3,6-dihydro-2H-[1,4]oxazin-3-yl)-4-fluoro-phenyl]-amide], the Kd was found to be 8 nM in experiment [1] and 46 nM in experiment [4]. The half-inhibitory concentration (IC50) in experiment [2] was determined as 3 nM; in experiment [3], 17 nM.

For orientation: Kd means a measure of binding affinity in units of concentration. Usually IC50 stands for the concentration needed to halve the response being measured.

Source of the values: US20130196984A1, “3-AMINO-5-PHENYL-56-DIHYDRO-2H-[1,4]OXAZINES” (Siena Biotech S.p.A., priority 2009, published 2013).
